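Compound exposure: 48 hours, 5 concentrations, 96-well plates. At the GI50, growth is halved. TGI: concentration producing complete growth inhibition.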
How the values were obtained:
Assay in all cases: DTP human tumour cell line panel, 48 h; in the data active means GI50 below about 0.43 µM; inactive means the rest
[1] = test system: ACHN renal
[2] = test system: COLO 205 colon
[3] = test system: U251 CNS
[4] = test system: NCI-H23 lung
[5] = test system: HOP-92 NSCLC
[6] = test system: LOX IMVI melanoma
[7] = test system: OVCAR-4 ovarian
[8] = test system: OVCAR-3 ovarian
[9] = test system: SF-539 CNS
[10] = test system: NCI-H460 lung

NNC(=O)N/N=C1/C(=O)N(c2ccc(Cl)c(Cl)c2)C(=O)C(=O)C1c1nc2ccccc2o1 (centres undefined)
> 100 µM: TGI [1] | TGI [2] | TGI [3] | TGI [4] | TGI [5] | TGI [6] | TGI [7] | TGI [8] | TGI [9]

NCCNc1ncnc2ccc(Cl)cc12
> 100 µM: TGI [1] | TGI [2] | TGI [3] | TGI [4] | TGI [5] | TGI [6] | TGI [7] | TGI [8] | TGI [10]

C/C(=N\NS(=O)(=O)c1ccccc1)c1ccc[n+]([O-])n1
> 100 µM: TGI [1] | TGI [3] | TGI [4] | TGI [5] | TGI [7] | TGI [8] | TGI [10] | TGI [9]

Nc1nc(N)c(-c2ccc(Cl)cc2)c(/C=C/c2ccc([N+](=O)[O-])cc2)n1
23.8 µM: TGI [3]
30 µM: TGI [9]
inactive: GI50 [1] 3.85 µM | GI50 [2] 6.01 µM | GI50 [3] 3.99 µM | GI50 [4] 13.3 µM | GI50 [6] 4.52 µM | GI50 [7] 4.54 µM | GI50 [8] 5.76 µM | GI50 [10] 3.4 µM | GI50 [9] 7.15 µM
31.1 µM: TGI [8]
> 100 µM: TGI [1] | TGI [2] | TGI [4] | TGI [6] | TGI [7] | TGI [10]

COc1ccc(S(=O)(=O)N/N=C/CN2C(=O)c3ccccc3C2=O)cc1
> 100 µM: TGI [1] | TGI [2] | TGI [3] | TGI [4] | TGI [6] | TGI [7] | TGI [10] | TGI [9]

O=[N+]([O-])c1ccc2nc(=S)[nH]n2c1
> 100 µM: TGI [1] | TGI [2] | TGI [3] | TGI [4] | TGI [5] | TGI [6] | TGI [7] | TGI [10] | TGI [9]

CCCCCC/C(CC(=O)CCC(=O)NCCc1ccccc1)=N\NC(=O)c1ccc2ccccc2c1O
> 100 µM: TGI [1] | TGI [2] | TGI [3] | TGI [4] | TGI [5] | TGI [7] | TGI [8] | TGI [10]
48.5 µM: TGI [6]

COc1ccc2c(c1)O/C(=C\c1ccc([N+](=O)[O-])s1)C2=O
5.37 µM: TGI [5]
> 100 µM: TGI [1] | TGI [2] | TGI [10]
inactive: GI50 [1] 1.41 µM | GI50 [2] 1.88 µM | GI50 [3] 2.07 µM | GI50 [4] 1.33 µM | GI50 [5] 1.57 µM | GI50 [7] 1.59 µM | GI50 [10] 2.32 µM
4.91 µM: TGI [7]
5.92 µM: TGI [4]
> 20.9 µM: TGI [3]

CCOc1ccccc1NC(=O)C(=O)c1c(O)c2ccc(O)cc2oc1=O
> 100 µM: TGI [1] | TGI [2] | TGI [3] | TGI [4] | TGI [6] | TGI [7] | TGI [8] | TGI [10] | TGI [9]

CCC(=O)Oc1ccc(/C=N/NC(N)=S)nc1
21 µM: TGI [1]
46.6 µM: TGI [10]
5.52 µM: TGI [9]
inactive: GI50 [1] 1.01 µM | GI50 [2] 27.5 µM | GI50 [3] 4.5 µM | GI50 [4] 2.48 µM | GI50 [6] 2.91 µM | GI50 [7] 3.92 µM | GI50 [8] 3.37 µM | GI50 [10] 4.04 µM | GI50 [9] 1.51 µM
> 100 µM: TGI [2] | TGI [3] | TGI [4] | TGI [6] | TGI [7] | TGI [8]

C[C@H](CCCOS(C)(=O)=O)[C@H]1CC[C@H]2[C@@H]3CC[C@@H]4C[C@H](OS(C)(=O)=O)CC[C@]4(C)[C@H]3CC[C@]12C
2080 µM: TGI [10]
inactive: GI50 [1] 395 µM | GI50 [2] 1130 µM | GI50 [3] 356 µM | GI50 [4] 286 µM | GI50 [6] 483 µM | GI50 [7] 1850 µM | GI50 [8] 2170 µM | GI50 [10] 597 µM | GI50 [9] 586 µM
> 2500 µM: TGI [2] | TGI [7]
1270 µM: TGI [6]

Nc1nc(Cl)c2ncn(Cc3ccc(-c4ccc(CCl)cc4)cc3)c2n1
19.9 µM: TGI [4]
23.6 µM: TGI [5]
26.6 µM: TGI [9]
74.4 µM: TGI [2]
32 µM: TGI [8]
> 100 µM: TGI [1]
43.6 µM: TGI [7]
69.1 µM: TGI [10]
inactive: GI50 [1] 4.5 µM | GI50 [2] 7.17 µM | GI50 [4] 5.6 µM | GI50 [5] 1.3 µM | GI50 [7] 8.12 µM | GI50 [8] 7.3 µM | GI50 [10] 20.4 µM | GI50 [9] 10.9 µM

Cc1c(C(=O)Nc2ccc(Cl)cc2)nc(N)nc1-c1cccc(Cl)c1
95.6 µM: TGI [5]
> 100 µM: TGI [1] | TGI [2] | TGI [3] | TGI [4] | TGI [7] | TGI [8] | TGI [10] | TGI [9]

Source: PubChem BioAssay (NCI)
